Measured values taken from ChEMBL document CHEMBL1151643, “The Identification of a Major Phytotoxic Component from Alternaria macrospora as -Dehydrocurvularin” (J Nat Prod, 1985).
Values after ≈ are worked out from the molar mass of the structure shown.

Experiments:
Type in all cases: organism-based
[1] = Phytotoxicity against Cucumis sativus protoplast after 3 hrs by fluorescein diacetate staining; conditions: Cucumis sativus protoplasts, read-out: LD50
Gossypium hirsutum [2] = assay: Phytotoxicity against Gossypium hirsutum assessed as appearance of lesions at 10 ug applied to adaxial surface of leaf for 12 hrs measured after 16 hrs; conditions: in vivo, topical_or_ocular
Gossypium hirsutum [3] = assay: Phytotoxicity against Gossypium hirsutum assessed as appearance of lesions at 0.5 ug applied to adaxial surface of leaf for 12 hrs measured after 4 days; conditions: in vivo, topical_or_ocular

| Structure (SMILES) | CC50 at 3 h [1] | Activity (Gossypium hirsutum [2]) | Activity (Gossypium hirsutum [3]) |
| --- | --- | --- | --- |
| CC1CCCCCC(=O)c2c(O)cc(O)cc2CC(=O)O1 (centres undefined) [CURVULARIN] | 21 µg/mL (≈ 71.8 µM) |  |  |
| CC1CCC/C=C/C(=O)c2c(O)cc(O)cc2CC(=O)O1 (centres undefined) | 15 µg/mL (≈ 51.7 µM) | Toxic | Toxic |
